Test results reported in patent EP0961591B1, “METHOD TO ENHANCE TISSUE AC[…] RADIOLABELED COMPOUNDS” (BOARD OF SUPERVISORS OF LOUISIANA STATE UNIVERSITY AND …, priority 1997, dated 1999).

Experiments:
[1] = tested on: IMR-32; test: Peptide binding and internalization assay; set-up: species or system human
Procedure: (§1) Cell lines were obtained from the ATCC (IMR-32 and SKNSH) or from Ohio State University (Columbus, Ohio) (SK-R2). All cells lines were maintained in 5% CO2 at 37°C in media defined by the suppliers of the cell lines.
(§2) Cells were harvested, counted with a hemocytometer, and resuspended in binding buffer (Minimum Essential Medium (MEM), 10 mM Hepes, 0.01% BSA). A standard assay used 500,000 cells in 1 ml of binding buffer. Radioactive ligand alone (500,000 cpm), or in combination with at least 1,000-fold molar excess (10^-6 M) non-radioactive compound (to calculate specific binding), was added to a final volume of 1 ml. At the termination of the experiment, the incubation medium was removed, the cells were rinsed twice with Hanks balanced salt solution (HBSS), and the radioactivity in the cells determined using a gamma counter. This level of radioactivity represents total binding, which includes both membrane-bound and internalized fractions. Specific binding was determined by calculating the difference in the levels of measured radioactivity without the unlabeled competitor minus the radioactivity with the unlabeled competitor.
(§3) To differentiate between membrane and intracellular binding, cells were subsequently incubated for 10 min at 4°C with acidified HBSS (pH=4-5), rinsed in HBSS, and the radioactivity again determined using the gamma counter. Since the acid wash preferentially released the radioactive ligand from the external surface of the cell, remaining radioactivity was attributed to internalized fractions. Membrane-associated binding was then calculated as the difference between the total binding and internalized fractions.
The times for ligand binding and internalization were analyzed using the standard assay methods described above. […] The first series of experiments used IMR-32 cells that were exposed to a radioligand for varying periods of time (up to 72 hr). The incubation media was replaced at least every 48 hr.
(§4) The assay methods were as described in Example 2.

[2] = tested on: SK-R2; test: Peptide binding and internalization assay; set-up: species or system human
Procedure: as §1, §2, §3, §4

[3] = tested on: SKNSH; test: Peptide binding and internalization assay; set-up: species or system human
From the text: The cells included: (1) IMR-32 (ATCC No. CCL-127), a human neuroblastoma cell line with a very high expression level of somatostatin receptors (SST), predominantly SST-2; (2) SKNSH (ATCC No. HTB-11), a human neuroblastoma bone marrow metastatic cell that lacks somatostatin receptors as defined by either a binding assay or reverse transcriptase-polymerase chain reaction (RTPCR); and (3) SK-R2, a SKNSH-derived cell line transfected with the gene for the SST-2 receptor. The IMR-32 and the SK-R2 cells express somatostatin receptors type 2 (SST-2). […] Cell lines were obtained from the ATCC (IMR-32 and SKNSH) or from Ohio State University (Columbus, Ohio) (SK-R2). All cells lines were maintained in 5% CO2 at 37°C in media defined by the suppliers of the cell lines.
as §2, §3, §4

[4] = tested on: neuroendocrine cancers expressing the somatostatin receptor; test: Pilot clinical trial of monthly 180 mCi doses; assay type: in vivo, human; details: ten patients
Procedure: For six months, pilot clinical trials were conducted in ten human patients with progressive metastatic indolent and symptomatic neuroendocrine cancers expressing the somatostatin receptor. […] The first monthly dose was a bolus injection of 180 mCi. The second monthly dose was infusion of 180 mCi over 72 hr. The third monthly dose was infusion of 180 mCi over 24 hr. Thereafter, all monthly doses were infusion of 180 mCi over 24 hr. Clinical benefits (as evidenced by reduced pain, weight gain, reduced malaise, etc.) occurred in 6 of the 10 neuroendocrine (carcinoid/islet cell) patients. Partial radiographic responses (greater than 50% reduction in the product of perpendicular tumor diameters) occurred in 2 patients, and significant tumor necrosis developed in 7 of the 10 neuroendocrine patients. Treatment-related toxicity included 2 Grade III platelet, 1 Grade II WBC, 1 Grade I WBC and 2 Grade I Hb on the NCI (National Cancer Institute) grading scale.

[5] = tested on: human angiogenic vascular tissue; test: Human Placental Vein Angiogenesis Model; assay type: cell-based; details: 50 µCi/mL (or equivalent amounts), 14 days
From the text: Watson et al., "Up-Regulation of Somatostatin Receptor Subtype 2 (SST-2) mRNA Occurs During the Transformation of Human Endothelium to the Angiogenic Phenotype," Paper Presented at the 12th International Symposium on Regulatory Peptides, Copenhagen, Denmark, September 1996; J.C. Watson et al., "SST-2 Gene Expression Appears During Human Angiogenesis," Regulatory Peptides, vol. 64, p. 206 (Abstract) (1996); and J.C. Watson et al., "Breast Cancer Increases Initiation of Angiogenesis Without Accelerating Neovessel Growth Rate," Surgery, vol. 122, pp. 508-14 (1997). Human placental veins were cut into discs of 2 mm diameter and were incorporated into a 0.3% fibrinogen gel. This gel was then overlaid with tissue culture media containing 10-20 % fetal calf serum (FCS). Under normal conditions, endothelial cords will begin to sprout from the transected cut edge of the vein discs within six days.
These vein discs were placed into wells of three separate culture plates. One culture plate, the control sample, was allowed to grow without treatment. […] The discs were then incubated for fourteen days. […]
Using a digital image analyzer, the mean area of the sprouting tissue surrounding the discs was measured.
To measure the growth rate of angiogenic vascular tissue, every two days during the 14-day incubation period, the length of sprouts were measured. […]

[6] = IMR-32, competitor octreotide acetate
[7] = IMR-32 cells exposed to radioligand up to 72 hr
[8] = SKR-2, competitor octreotide acetate
[9] = NCI grading scale, monthly 180 mCi doses

(^111In-DTPA-D-Phe^1)-octreotide [^111In-pentetreotide]
Total Binding (CPM ± SD), MEMBRANE ([1]; IMR-32, 1 CPM/cell): 2,373 ± 417 CPM
Total Binding (CPM ± SD), TOTAL ([1]; IMR-32, 1 CPM/cell): 4,780 ± 928 CPM
Total Binding (CPM ± SD), INTRACELLULAR ([1]; IMR-32, 1 CPM/cell, after acid wash): 2,408 ± 51 CPM
Kd ([1]; IMR-32, Scatchard plot analysis, read-out: Kd (apparent dissociation constant)): 4 nM
Specific Binding (CPM), INTRACELLULAR [1, 6]: 1.536 CPM
Specific Binding (CPM), MEMBRANE [1, 6]: 2,372 CPM
Specific Binding (CPM), TOTAL [1, 6]: 3,908 CPM
fractions of total radioactivity incorporated into the cell [1, 7]: 40-75%
time of maximal binding [1, 7]: 48 to 72 h
binding associated with the plasma membrane ([2]; SK-R2 cell line): 95%
Total Binding (CPM ± SD), MEMBRANE ([2]; SKR-2, 1 CPM/cell): 33,655 ± 2,728 CPM
Total Binding (CPM ± SD), TOTAL ([2]; SKR-2, 1 CPM/cell): 36,261 ± 2,085 CPM
Total Binding (CPM ± SD), INTRACELLULAR ([2]; SKR-2, 1 CPM/cell, after acid wash): 2,607 ± 672 CPM
Kd ([2]; SKR-2, Scatchard plot analysis, read-out: Kd (apparent dissociation constant)): 1 nM
Specific Binding (CPM), INTRACELLULAR [2, 8]: 1,792 CPM
Specific Binding (CPM), MEMBRANE [2, 8]: 33,683 CPM
Specific Binding (CPM), TOTAL [2, 8]: 35,475 CPM
Total Binding (CPM ± SD), MEMBRANE ([3]; 1 CPM/cell): 87 ± 114 CPM
Total Binding (CPM ± SD), TOTAL ([3]; 1 CPM/cell): 861 ± 30 CPM
Total Binding (CPM ± SD), INTRACELLULAR ([3]; 1 CPM/cell, after acid wash): 775 ± 107 CPM
Specific Binding (CPM), INTRACELLULAR ([3]; competitor octreotide acetate): 0 CPM
Specific Binding (CPM), MEMBRANE ([3]; competitor octreotide acetate): 0 CPM
Treatment-related toxicity: Grade I Hb [4, 9]: 2
Treatment-related toxicity: Grade I WBC [4, 9]: 1
Treatment-related toxicity: Grade II WBC [4, 9]: 1
Treatment-related toxicity: Grade III platelet [4, 9]: 2
Clinical benefits (reduced pain, weight gain, reduced malaise, etc.) ([4]; monthly 180 mCi doses (bolus, then infusion over 72 hr, then 24 hr)): 6 of the 10
Partial radiographic responses (greater than 50% reduction in the product of perpendicular tumor diameters) ([4]; monthly 180 mCi doses): 2 patients
significant tumor necrosis ([4]; monthly 180 mCi doses): 7 of the 10
% initiation of angiogenic growth [5]: lowest % initiation
vessel area ([5]; digital image analyzer): the least area of new growth
